Assays:
[1] = biological target: T1, human sphingosine-1-phosphate receptor 1 (S1P1) (Homo sapiens (Human), UniProt P21453); experiment: β-Arrestin2 recruitment assay (PathHunter), S1P1 CHO-K1 cells; type: cell-based; settings: for Emax: CHO-K1, read-out: hS1P1 B-arrestin2 SPAN
Procedure, shortened: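 Enzyme-fragment complementation read-out: agonist-driven β-arrestin2 binding to ProLink-tagged human S1P1 in stable CHO-K1 cells restores β-galactosidase, measured 1 h at room temperature after a 60 min 37° C. compound incubation. Potency as pEC50, efficacy relative to fingolimod (SPAN).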
Target sequence in this assay (P21453 whole entry, looked up, the tested form may be a part): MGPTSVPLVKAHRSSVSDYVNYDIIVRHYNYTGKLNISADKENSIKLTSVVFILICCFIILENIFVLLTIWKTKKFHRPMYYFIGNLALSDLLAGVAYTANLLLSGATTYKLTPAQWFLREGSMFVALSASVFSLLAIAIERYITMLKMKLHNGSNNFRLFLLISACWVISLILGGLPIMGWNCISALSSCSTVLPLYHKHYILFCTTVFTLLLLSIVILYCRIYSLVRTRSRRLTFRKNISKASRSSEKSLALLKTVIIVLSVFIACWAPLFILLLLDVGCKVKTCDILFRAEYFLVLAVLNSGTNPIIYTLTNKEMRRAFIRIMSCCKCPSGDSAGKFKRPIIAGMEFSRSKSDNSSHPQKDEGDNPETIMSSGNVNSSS
Target sequence in this assay (P32121 whole entry partner, looked up, the tested form may be a part): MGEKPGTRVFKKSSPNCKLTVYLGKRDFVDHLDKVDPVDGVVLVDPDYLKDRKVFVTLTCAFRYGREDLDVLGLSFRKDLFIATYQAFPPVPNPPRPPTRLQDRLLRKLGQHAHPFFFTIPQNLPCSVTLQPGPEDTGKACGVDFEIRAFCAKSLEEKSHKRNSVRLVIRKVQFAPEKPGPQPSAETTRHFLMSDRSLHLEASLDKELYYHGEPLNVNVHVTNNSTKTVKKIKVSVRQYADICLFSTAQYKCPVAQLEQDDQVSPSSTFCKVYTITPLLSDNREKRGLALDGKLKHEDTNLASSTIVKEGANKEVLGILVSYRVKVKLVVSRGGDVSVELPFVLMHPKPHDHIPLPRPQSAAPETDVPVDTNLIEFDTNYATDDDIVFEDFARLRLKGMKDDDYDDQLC

[2] = biological target: T1, human sphingosine-1-phosphate receptor 1 (S1P1); experiment: Inhibition of cAMP production (HTRF cAMP HiRange), S1P1 CHO-K1 cells; type: cell-based; settings: for Emax: CHO-K1, read-out: hS1P1 cAMP SPAN
Procedure, shortened: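 CHO-K1 cells stably co-expressing human S1P1 (C-terminal Prolink tag) and EA-β-arrestin2 were grown in AssayComplete Media 6 at 37° C. and 5% CO2, plated, and incubated overnight. Agonist-driven inhibition of intracellular cAMP was read by TR-FRET with the HTRF cAMP HiRange kit on a PheraStar reader. Potency is pEC50, and efficacy (SPAN) is normalized to fingolimod.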
Target sequence in this assay (P21453 whole entry, looked up, the tested form may be a part): as the sequence (P21453 whole entry, looked up, the tested form may be a part) above

[3] = β-arrestin2 recruitment, S1P1 CHO-K1 cells
[4] = inhibition of cAMP production, S1P1 CHO-K1 cells
[5] = efficacy (SPAN) normalized to fingolimod

Row | SMILES | hS1P1 B-arrestin2 pEC50 [1, 3] | hS1P1 cAMP pEC50 [2, 4] | Emax [1, 5] [%] | Emax [2, 5] [%] | also measured
1 | COc1ccccc1-c1cnc(-c2ccc3c(c2)nnn3C(C)C)nc1 [Compound 565, 1-isopropyl-5-(5-(2-methoxyphenyl)pyrimidin-2-yl)-1H-benzo[d][1,2,3]triazole] | >5 | >6.5 |  |  | 
2 | COc1ccccc1-c1c[nH]c(-c2ccc3c(c2)nnn3C(C)C)c1 [Compound 566, 5-[4-(2-methoxyphenyl)-1H-pyrrol-2-yl]-1-(propan-2-yl)-1H-1,2,3-benzotriazole] | <5 | <6.5 |  |  | 
3 | Cn1ccnc1-c1noc(-c2ccc3c(c2)nnn3CC(C)(C)O)n1 [Compound 567, 2-methyl-1-{5-[3-(1-methyl-1H-imidazol-2-yl)-1,2,4-oxadiazol-5-yl]-1H-1,2,3-benzotriazol-1-yl}propan-2-ol] | <5 | <6.5 |  |  | 
4 | CC(C)n1nnc2cc(-c3nc(-c4nccn4C)no3)ccc21 [Compound 569, 5-[3-(1-methyl-1H-imidazol-2-yl)-1,2,4-oxadiazol-5-yl]-1-(propan-2-yl)-1H-1,2,3-benzotriazole] | <5 | <6.5 | < 75 | > 75 | 
5 | CC(C)(O)Cn1nnc2cc(-c3nc(-c4cocn4)no3)ccc21 [Compound 570, 2-methyl-1-{5-[3-(1,3-oxazol-4-yl)-1,2,4-oxadiazol-5-yl]-1H-1,2,3-benzotriazol-1-yl}propan-2-ol] | <5 | <6.5 | < 75 | < 75 | 
6 | Cc1nc2cc(-c3nc(-c4ccc5c(c4)nnn5C(C)C)no3)ccc2[nH]1 [Compound 571, 5-[5-(2-methyl-1H-1,3-benzodiazol-5-yl)-1,2,4-oxadiazol-3-yl]-1-(propan-2-yl)-1H-1,2,3-benzotriazole] | >5 | >6.5 |  |  | 
7 | CC(C)Nc1ccc(-c2nnc(-c3ccc4c(c3)ncn4C)o2)cc1C#N [Compound 572, 5-[5-(1-methyl-1H-1,3-benzodiazol-5-yl)-1,3,4-oxadiazol-2-yl]-2-[(propan-2-yl)amino]benzonitrile] | <5 | <6.5 |  |  | 
8 | Cn1cnc2cc(-c3nnc(-c4ccc(NCC(F)F)c(C#N)c4)o3)ccc21 [Compound 573, 2-[(2,2-difluoroethyl)amino]-5-[5-(1-methyl-1H-1,3-benzodiazol-5-yl)-1,3,4-oxadiazol-2-yl]benzonitrile] | <5 | <6.5 |  |  | 
9 | CC(C)Nc1ccc(-c2nnc(-c3ccc4c(c3)ncn4CCO)o2)cc1C#N [Compound 574, 5-{5-[1-(2-hydroxyethyl)-1H-1,3-benzodiazol-5-yl]-1,3,4-oxadiazol-2-yl}-2-[(propan-2-yl)amino]benzonitrile] | <5 | <6.5 |  |  | 
10 | COc1ccccc1-c1nc(-c2ccc3c(c2)nnn3C(C)C)co1 [Compound 575, 5-[2-(2-methoxyphenyl)-1,3-oxazol-4-yl]-1-(propan-2-yl)-1H-1,2,3-benzotriazole] | >5 | >6.5 | > 75 | > 75 | 
11 | CC(C)n1nnc2cc(-c3noc(-c4ccccc4N)n3)ccc21 [Compound 576, 2-{3-[1-(propan-2-yl)-1H-1,2,3-benzotriazol-5-yl]-1,2,4-oxadiazol-5-yl}aniline] | >5 | >6.5 | < 75 | > 75 | 
12 | CC(C)(O)Cn1nnc2cc(-c3nc(-c4cccc5cc[nH]c45)no3)ccc21 [Compound 577, 1-{5-[3-(1H-indol-7-yl)-1,2,4-oxadiazol-5-yl]-1H-1,2,3-benzotriazol-1-yl}-2-methylpropan-2-ol] | >5 | <6.5 | < 75 | < 75 | 
13 | N#Cc1cc(-c2nnc(-c3ccc4c(c3)ncn4CCO)o2)ccc1NCC(F)F [Compound 578, 2-[(2,2-difluoroethyl)amino]-5-{5-[1-(2-hydroxyethyl)-1H-1,3-benzodiazol-5-yl]-1,3,4-oxadiazol-2-yl}benzonitrile] | <5 | <6.5 |  |  | 
14 | COc1cc(NC(C)=O)ccc1-c1nc(-c2ccncc2)no1 [Compound 582, N-{3-methoxy-4-[3-(pyridin-4-yl)-1,2,4-oxadiazol-5-yl]phenyl}acetamide] | <5 | <6.5 |  |  | 
15 | CCOP(=O)(Cc1ccc(-c2noc(-c3ccc4c(c3)nnn4C(C)C)n2)cc1)OCC [Compound 583, diethyl [(4-{5-[1-(propan-2-yl)-1H-1,2,3-benzotriazol-5-yl]-1,2,4-oxadiazol-3-yl}phenyl)methyl]phosphonate] |  |  |  |  | hS1P1 B-arrestin2 SPAN [1, 5]: <75; hS1P1 cAMP SPAN [2, 5]: <75
16 | CNc1ccccc1-c1coc(-c2ccc3c(c2)nnn3C(C)C)n1 [Compound 587, N-methyl-2-{2-[1-(propan-2-yl)-1H-1,2,3-benzotriazol-5-yl]-1,3-oxazol-4-yl}aniline] | <5 | <6.5 | < 75 | < 75 | 
17 | CCC1CC(=O)c2ccc(-c3nc(-c4cccnc4)no3)cc2O1 (centres unmarked) [Compound 588, 2-ethyl-7-[3-(pyridin-3-yl)-1,2,4-oxadiazol-5-yl]-3,4-dihydro-2H-1-benzopyran-4-one] | <5 | <6.5 |  |  | 
18 | CC(C)(O)Cn1nnc2cc(-c3nc(-c4ccc5nonc5c4)no3)ccc21 [Compound 590, 1-{5-[3-(2,1,3-benzoxadiazol-5-yl)-1,2,4-oxadiazol-5-yl]-1H-1,2,3-benzotriazol-1-yl}-2-methylpropan-2-ol] | <5 | <6.5 |  |  | 
19 | CCC1(CC)CC(=O)c2cc(-c3nc(-c4cccs4)no3)ccc2N1 [Compound 591, 2,2-diethyl-6-(3-(thiophen-2-yl)-1,2,4-oxadiazol-5-yl)-2,3-dihydroquinolin-4(1H)-one] | >5 | >6.5 |  |  | 
20 | Cc1ccccc1-c1nc(-c2ccc3c(c2)nnn3CC(C)(C)O)no1 [Compound 593, 2-methyl-1-(5-(5-(o-tolyl)-1,2,4-oxadiazol-3-yl)-1H-benzo[d][1,2,3]triazol-1-yl)propan-2-ol] |  |  | > 75 | > 75 | EC50 ([1]; β-arrestin2 recruitment, S1P1 CHO-K1 cells, read-out: hS1P1 B-arrestin2 pEC50 (converted)): < 10 µM; EC50 ([2]; inhibition of cAMP production, S1P1 CHO-K1 cells, read-out: hS1P1 cAMP pEC50 (converted)): < 0.316 µM
21 | CCC1(CC)CC(=O)c2cc(-c3ncc(-c4ccccc4OC)cn3)ccc2O1 [Compound 594, 2,2-diethyl-6-(5-(2-methoxyphenyl)pyrimidin-2-yl)chroman-4-one] | >5 | >6.5 |  |  | 

From patent US11912693B2, “Compounds for modulating S1P1 activity and methods of using the same” (TREVENA, INC., priority 2017, dated 2024)
